Measurements as given in ChEMBL document CHEMBL3286223, “Anticancer phytochemical analogs 37: synthesis, characterization, molecular docking and cytotoxicity of novel plumbagin hydrazones against breast cancer cells” (Bioorg Med Chem Lett, 2014).
Active and inactive are the calls of the source. No cut-off for these calls is given here.

Assays:
MCF7 = experiment: Cytotoxicity against human MCF7 cells expressing estrogen and progesterone receptor after 72 hrs by MTT assay; type: functional, cell-based
[1] = Cytotoxicity against human MCF10A cells after 72 hrs by MTT assay; type: cell-based; conditions: mcf-10a
MDA-MB-231 = experiment: Cytotoxicity against estrogen receptor-deficient human MDA-MB-231 cells after 72 hrs by MTT assay; type: functional, cell-based; conditions: MDA-MB-231, 72 h
[2] = target: Transcription factor p65 (Homo sapiens) (UniProt Q04206); experiment: Reduction of NFkappaB p65 expression in estrogen receptor-deficient human MDA-MB-231 cells at 5 uM after 72 hrs by Western blot analysis; type: cell-based
Transcription factor p65 (Homo sapiens), sequence (Q04206 whole entry): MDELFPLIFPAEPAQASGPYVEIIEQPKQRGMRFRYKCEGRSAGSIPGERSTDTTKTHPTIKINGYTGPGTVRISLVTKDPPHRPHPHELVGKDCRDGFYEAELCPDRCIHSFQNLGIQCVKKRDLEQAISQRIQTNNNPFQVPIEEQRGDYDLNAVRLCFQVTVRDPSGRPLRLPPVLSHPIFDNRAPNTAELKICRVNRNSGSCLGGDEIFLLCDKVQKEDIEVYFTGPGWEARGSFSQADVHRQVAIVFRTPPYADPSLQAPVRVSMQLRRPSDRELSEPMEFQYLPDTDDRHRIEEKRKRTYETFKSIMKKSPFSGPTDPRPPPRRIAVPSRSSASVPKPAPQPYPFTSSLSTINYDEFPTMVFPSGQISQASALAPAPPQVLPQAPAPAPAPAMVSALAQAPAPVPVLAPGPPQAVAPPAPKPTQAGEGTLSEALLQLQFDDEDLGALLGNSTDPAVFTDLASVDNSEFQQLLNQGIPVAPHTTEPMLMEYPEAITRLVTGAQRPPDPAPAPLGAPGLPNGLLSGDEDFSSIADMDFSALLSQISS

| Activity [2] | Compound | Activity (MCF7) | Activity [1] | IC50 (MDA-MB-231) |
| --- | --- | --- | --- | --- |
| – | CC1=CC(=O)c2c(O)cccc2C1=O | Active | – | – |
| Active | CC1=C/C(=N\NC(=O)c2cc3ccccc3cc2O)c2c(O)cccc2C1=O | Active | Non-toxic | 3.2 µM |
| – | CC1=C/C(=N\NC(N)=S)c2c(O)cccc2C1=O | Active | Non-toxic | – |
| Active | CC1=C/C(=N\NC(=O)Cc2c[nH]c3ccccc23)c2c(O)cccc2C1=O | Active | Non-toxic | 1.5 µM |
| – | CC(=O)N/N=C1\C=C(C)C(=O)c2cccc(O)c21 | Active | Non-toxic | – |
